This note sets out measurements from patent US8633218B2, “8-azabicyclo[3.2.1]oct-2-ene derivatives and their use as monoamine neurotransmitter re-uptake inhibitors” (Aniona APS, priority 2008, dated 2014).

Assay type in all cases: biochemical
For test [1], the system named is serotonine (5-HT) reuptake in synaptosomes. The test can be described thus: Inhibition of 3H-5-HT reuptake in synaptosomes. The following applies: read-out: 5-HT-uptake IC50. As to the method: (§1) Compounds were tested for their ability to inhibit the reuptake of the monoamine neurotransmitters dopamine (DA) noradrenaline (NA) and serotonine (5-HT) in synaptosomes as described in WO 97/16451 (NeuroSearch A/S).
(§2) The test values are given as IC50 (the concentration (μM) of the test substance which inhibits the specific binding of ^3H-DA, ^3H-NA, or ^3H-5-HT by 50%).

The test system of test [2] is dopamine (DA) reuptake in synaptosomes. The test can be described thus: Inhibition of 3H-DA reuptake in synaptosomes. Particulars: read-out: DA-uptake IC50. Here is the method: as §1, §2
In test [3] the test system is noradrenaline (NA) reuptake in synaptosomes. The test can be described thus: Inhibition of 3H-NA reuptake in synaptosomes. The following applies: read-out: NA-uptake IC50. As to the method: as §1, §2

Molecules are shown by their SMILES. Structures can show the parent of a compound that is named as a salt.

A word on the IC50: it is the concentration that gives 50% inhibition.

With `COc1ccc2sc(C3=CC4CCC(C3)N4)cc2c1` (stereo not drawn) [Compound 2.1, 3-(5-Methoxy-benzo[b]thiophen-2-yl)-8-aza-bicyclo[3.2.1]oct-2-ene hydrochloric acid salt], the IC50 in test [1] is 2.5 nM; in test [2], 740 nM; in test [3], 57 nM.

`Oc1ccc2sc(C3=CC4CCC(C3)N4)cc2c1` (stereo not drawn) [Compound 3.1, 2-(8-Aza-bicyclo[3.2.1]oct-2-en-3-yl)-benzo[b]thiophen-5-ol hydrochloric acid salt]: the IC50 amounted to 0.37 nM in test [1], 94 nM in test [2] and 4.3 nM in test [3].
